According to US20200038513A1, “MODULATORS OF FAK PROTEOLYSIS AND ASSOCIATED METHODS OF USE” (ARVINAS OPERATIONS, INC., priority 2018, published 2020):

System: MDA-MB-231 cells
Assay: RPPA (reverse phase protein array)
Type: cell-based, human
Conditions: 500nM
Protocol: RPPA analysis was performed by MD Anderson Cancer Center RPPA core facility.
Examination of the Molecular Signaling Events) and/or Downstream Pathways Responsible for the Migration and Invasion Effects Observed by Exemplary Compound Treatment. To pinpoint these observations to a molecular signaling event or specific downstream pathway, reverse phase protein array (RPPA) analysis was performed (Table 4).

Q: Which results are given for `Cc1ncsc1-c1ccc(CNC(=O)[C@@H]2C[C@@H](O)CN2C(=O)[C@@H](NC(=O)CCOCCOc2ccc(Nc3ncc(C(F)(F)F)c(NCc4cccc(N(C)S(C)(=O)=O)c4)n3)cc2)C(C)(C)C)cc1` [Compound 102, (2S,4R)-1-((S)-3,3-dimethyl-2-(3-(2-(4-((4-((3-(N-methylmethylsulfonamido)benzyl)amino)-5-(trifluoromethyl)pyrimidin-2-yl)amino)phenoxy)ethoxy)propanamido)butanoyl)-4-hydroxy-N-(4-(4-methylthiazol-5-yl)benzyl)pyrrolidine-2-carboxamide]?
A: rel. Protein level, 4E-BP1: 110.6%; rel. Protein level, 4E-BP1_pS65: 92.3%; rel. Protein level, 14-3-3-beta: 100.5%; rel. Protein level, 14-3-3-zeta: 105.4%; rel. Protein level, 53BP1: 111.3%; rel. Protein level, A-Raf: 106.5%; rel. Protein level, ACC1: 103.3%; rel. Protein level, ACC_pS79: 95.4%; rel. Protein level, ADAR1: 121.2%; rel. Protein level, AMPK-a2_pS345: 97.2%; rel. Protein level, AMPKa: 105.1%; rel. Protein level, AMPKa_pT172: 92.7%; rel. Protein level, AR: 85.0%; rel. Protein level, ARID1A: 121.1%; rel. Protein level, ATM: 106.8%; rel. Protein level, ATM_pS1981: 99.7%; rel. Protein level, ATR_pS428: 99.2%; rel. Protein level, Akt: 101.7%; rel. Protein level, Akt_pS473: 74.2%; rel. Protein level, Akt_pT308: 94.2%; rel. Protein level, Annexin-I: 117.8%; rel. Protein level, Annexin-VII: 110.0%; rel. Protein level, Atg3: 98.3%; rel. Protein level, Atg7: 100.8%; rel. Protein level, Aurora-B: 92.3%; rel. Protein level, Axl: 94.7%; rel. Protein level, B7-H4: 97.5%; rel. Protein level, B-Raf: 110.9%; rel. Protein level, B-Raf_pS445: 108.0%; rel. Protein level, BAP1: 96.8%; rel. Protein level, BRD4: 118.7%; rel. Protein level, Bad_pS112: 102.3%; rel. Protein level, Bak: 100.7%; rel. Protein level, Bax: 110.5%; rel. Protein level, Bc1-xL: 97.6%; rel. Protein level, Bc12: 92.8%; rel. Protein level, Beclin_l: 100.0%; rel. Protein level, BiP-GRP78: 103.0%; rel. Protein level, Bid: 102.8%; rel. Protein level, Bim: 102.9%; rel. Protein level, C-Raf: 100.8%; rel. Protein level, C-Raf_pS338: 90.7%; rel. Protein level, CD4: 101.8%; rel. Protein level, CD20: 92.3%; rel. Protein level, CD29: 104.7%; rel. Protein level, CD31: 98.2%; rel. Protein level, CD44: 106.6%; rel. Protein level, CD45: 97.9%; rel. Protein level, CD49b: 116.5%; rel. Protein level, CD134: 99.0%; rel. Protein level, CDK1_pT14: 94.6%; rel. Protein level, COG3: 107.9%; rel. Protein level, Caspase-3: 106.7%; rel. Protein level, Caspase-7-cleaved-: 113.1%; rel. Protein level, Caspase-8: 102.4%; rel. Protein level, Caveolin-1: 141.0%; rel. Protein level, Chk2: 94.4%; rel. Protein level, Chk2_pT68: 103.4%; rel. Protein level, Chkl: 92.3%; rel. Protein level, Chkl_pS296: 96.6%; rel. Protein level, Claudin-7: 101.6%; rel. Protein level, Collagen-VI: 93.4%; rel. Protein level, Connexin-43: 92.3%; rel. Protein level, Cox2: 171.3%; rel. Protein level, Cox-IV: 104.5%; rel. Protein level, Creb: 103.4%; rel. Protein level, Cyclin-B1: 96.7%; rel. Protein level, Cyclin-D1: 105.2%; rel. Protein level, Cyclin-D3: 94.7%; rel. Protein level, Cyclin-E1: 110.5%; rel. Protein level, Cyclophilin-F: 97.6%; rel. Protein level, D-a-Tubulin: 95.2%; rel. Protein level, DJ1: 103.5%; rel. Protein level, DM-Histone-H3: 108.5%; rel. Protein level, DM-K9-Histone-H3: 111.9%; rel. Protein level, DUSP4: 142.6%; rel. Protein level, E2F1: 98.2%; rel. Protein level, E-Cadherin: 92.7%; rel. Protein level, EGFR: 98.2%; rel. Protein level, EGFR_pY1173: 101.5%; rel. Protein level, EMA: 109.4%; rel. Protein level, ENY2: 95.1%; rel. Protein level, ER: 98.1%; rel. Protein level, ER-a_pS118: 109.9%; rel. Protein level, ERCC1: 93.6%; rel. Protein level, ERCC5: 103.3%; rel. Protein level, Elk1_pS383: 97.5%; rel. Protein level, Ets-1: 97.7%; rel. Protein level, FAK: 55.4%; rel. Protein level, FAK_pY397: 86.4%; rel. Protein level, FASN: 92.6%; rel. Protein level, FOXM1: 92.4%; rel. Protein level, Fibronectin: 103.9%; rel. Protein level, FoxO3a: 100.5%; rel. Protein level, FoxO3a_pS318_S321: 96.0%; rel. Protein level, G6PD: 97.7%; rel. Protein level, GAPDH: 99.4%; rel. Protein level, GATA3: 97.2%; rel. Protein level, GATA-6: 99.4%; rel. Protein level, GCLM: 99.9%; rel. Protein level, GCN5L2: 99.4%; rel. Protein level, GSK-3a-b: 107.2%; rel. Protein level, GSK-3a-b_pS21_S9: 97.0%; rel. Protein level, Gab2: 100.5%; rel. Protein level, Glutamate-D1-2: 95.5%; rel. Protein level, Glutaminase: 111.5%; rel. Protein level, Granzyme-B: 101.4%; rel. Protein level, Gys: 111.6%; rel. Protein level, Gys_pS641: 105.2%; rel. Protein level, H2AX_pS140: 117.7%; rel. Protein level, HER2: 106.9%; rel. Protein level, HER2_pY1248: 97.5%; rel. Protein level, HER3: 102.8%; rel. Protein level, HER3_pY1289: 96.9%; rel. Protein level, HES1: 92.3%; rel. Protein level, HLA-DR-DP-DQ-DX: 101.7%; rel. Protein level, HSP27: 96.5%; rel. Protein level, HSP27_pS82: 95.4%; rel. Protein level, HSP70: 105.2%; rel. Protein level, Heregulin: 113.3%; rel. Protein level, Hexokinase-II: 99.4%; rel. Protein level, Hif-l-alpha: 130.8%; rel. Protein level, Histone-H3: 131.4%; rel. Protein level, IGF1R_pY1135_Y1136: 97.2%; rel. Protein level, IGFBP2: 89.0%; rel. Protein level, IGFRb: 98.5%; rel. Protein level, INPP4b: 98.0%; rel. Protein level, IR-b: 111.4%; rel. Protein level, IRF-1: 111.6%; rel. Protein level, IRS1: 101.4%; rel. Protein level, JNK2: 103.8%; rel. Protein level, JNK_pT183_Y185: 98.5%; rel. Protein level, Jagged1: 111.0%; rel. Protein level, Jak2: 107.2%; rel. Protein level, LC3A-B: 106.5%; rel. Protein level, LDHA: 123.8%; rel. Protein level, LRP6_pS1490: 128.4%; rel. Protein level, Lck: 96.8%; rel. Protein level, MAPK_pT202-Y204: 93.7%; rel. Protein level, MCT4: 126.7%; rel. Protein level, MDM2_pS166: 94.8%; rel. Protein level, MEK1: 106.4%; rel. Protein level, MEK1_p_S217-S221: 95.0%; rel. Protein level, MERIT40_pS29: 92.3%; rel. Protein level, MIF: 107.4%; rel. Protein level, MIG6: 106.7%; rel. Protein level, MMP2: 103.9%; rel. Protein level, MMP14-[EP1264Y]: 137.5%; rel. Protein level, MMP-14: 120.9%; rel. Protein level, MSH6: 97.8%; rel. Protein level, MSI2: 93.5%; rel. Protein level, Mcl-1: 89.4%; rel. Protein level, Merlin: 94.1%
